Source: patent US20070249709A1, “Crystal forms of (S)-(8(2,6-dichlorophenyl)-6-fluoro-2,3-dihydro benzo[b][1,4]dioxin-2-yl)methanamine hydrochloride salt” (Wyeth, priority 2006, published 2007)
Entries after “also recorded” stand apart in the source; their conditions may differ. Counter-ions that a name gives are not always drawn. Each block holds one molecule with its values, some of them ahead of it.

How the values were obtained:
Assay type in all cases: physicochemical
[1] = Hygroscopicity by dynamic vapor sorption (DVS); details: for Reversibility of DVS mass change / Crystal form stability at high humidity (DVS): hydrochloride; for Crystal form stability at high humidity (DVS): high RH
Excerpt: The hygroscopicity (the ability to absorb water vapor from the surrounding atmosphere) of Forms I and II was explored by dynamic vapor sorption (DVS) experiments. […] When RH was scanned from 70% to 100%, significant mass change was observed (up to about 4.5%). […] When RH continued to be scanned from 50% to 0%, the sample lost water (weight). […] A second cycle of scanning indicated a new absorption behavior when RH was raised from 50% to 100%.
The starting RH was about 50%, and only about 1% of mass change was observed when RH was scanned to 100% RH. When RH was scanned back to 50%, the mass change appeared reversible. The mass change was very slow when RH continued to be scanned from 50% to 10%. When RH was scanned from 10% to 0%, the sample lost about 2.7% of mass (water).

[2] = Solution mediated transformation (reslurry stability experiments at 25° C.); details: for Stability on slurrying (summary of Table 6): water or organic solvent, hydrochloride
Excerpt: The mixtures were then filtered and the solids obtained were characterized by one or more methods of XRPD, DSC and TGA.

[3] = Thermal stability of crystal forms under vacuum and 50° C.; details: vacuum
Experimental: Forms I, II and III were placed in oven at 50° C. and under vacuum to assess their thermal stability.

Grinding test = details: manually ground, ambient conditions; hydrochloride
Excerpt: Samples of Form I and Form II were manually ground and the resulting powders were characterized by one or more methods of XRPD, DSC and TGA.

[4] = Slurry of a mixture of Form I and Form III in a solvent, crystal form by XRPD/DSC; details: for Final Form, Slurry @ RT: about 2 days
Experimental: A mixture of Form I and Form III (2θ-50 wt % of Form III) was slurried in a solvent (see Table 5) with stirring at room temperature for about 2 days. The slurry was then filtered at room temperature. The solid was dried at 50° C. under vacuum for overnight. The solid obtained by the filtration was characterized by XRPD both before and after the drying at 50° C.

[5] = Heating of a mixture of Form I and Form III
Experimental: A mixture of Form I and Form III (2θ-50 wt % of Form III) was heated to 110° C. at ambient pressure and kept at this temperature and pressure for 4 hours.
A mixture of Form I and Form III (2θ-50 wt % of Form III) was placed in an oven at 50° C. and under vacuum for 72 hours.

[6] = RH scanned from 100% back to 50%, room temperature

DVS mass change ([1]; RH from about 50% to 70%, room temperature (FIG. 3)): little mass change
Water absorption (DVS) ([1]; RH raised from 0% only to about 70% (FIG. 4)): absorbed very little water
DVS mass change ([1]; RH scanned from 70% to 100%, room temperature): up to 4.5%
DVS mass change remaining [1, 6]: about 2.7%
Reversibility of DVS mass change [1, 6]: substantially irreversible
Stability on slurrying (summary of Table 6) [2]: stable in organic solvents
Relative thermal stability (retention of crystal lattice integrity) [3]: more stable than Form III
Final Form ([3]; 48 hr): Form I
Solid form After grinding (Grinding test): some of Form I is changed into Form III
Structure (SMILES): NC[C@H]1COc2cc(F)cc(-c3c(Cl)cccc3Cl)c2O1 [Form I, (S)-(8-(2,6-dichlorophenyl)-6-fluoro-2,3-dihydrobenzo[b][1,4]dioxin-2-yl)methanamine hydrochloride]
Crystal form stability at high humidity (DVS) ([1]; room temperature): may be converted into another form at high RH

DVS mass (water) loss ([1]; RH scanned from 10% to 0%, room temperature): about 2.7%
Reversibility of DVS mass change [1, 6]: reversible
DVS mass change ([1]; RH scanned from about 50% to 100%, room temperature (FIG. 8)): about 1%
Final form, Sample from wet filter cake ([2]; reslurry in tBME, 30 mins): I + II
Stability on slurrying (summary of Table 6) [2]: stable in water
Relative thermal stability (retention of crystal lattice integrity) [3]: more stable than Form III
Final Form ([3]; 72 hr): Form II
Structure (SMILES): NC[C@H]1COc2cc(F)cc(-c3c(Cl)cccc3Cl)c2O1 [Form II, (S)-(8-(2,6-dichlorophenyl)-6-fluoro-2,3-dihydrobenzo[b][1,4]dioxin-2-yl)methanamine hydrochloride]
Crystal form stability at high humidity (DVS) ([1]; room temperature): substantially stable even under high humidity
Solid form After grinding (Grinding test): did not lose its crystal structure; also recorded: Form II

Stability on slurrying (summary of Table 6) [2]: less stable under some conditions
Final Form ([3]; 20 hr): Form I + Form III
Structure (SMILES): NC[C@H]1COc2cc(F)cc(-c3c(Cl)cccc3Cl)c2O1 [Form III, (S)-(8-(2,6-dichlorophenyl)-6-fluoro-2,3-dihydrobenzo[b][1,4]dioxin-2-yl)methanamine hydrochloride]

Final Form, Slurry @ 50° C. ([4]; Isopropyl acetate): by DSC (I and minor III)
Final Form, Slurry @ RT ([4]; Isopropyl acetate): DSC (I and minor III)
Final Form, Slurry @ RT ([4]; Toluene): DSC (I and minor III)
Resulting solid form (XRPD) ([5]; 110° C., ambient pressure, 4 hours): anhydrous Form I
Resulting solid form (XRPD) ([5]; oven at 50° C., under vacuum, 72 hours): anhydrous Form I
Structure (SMILES): NC[C@H]1COc2cc(F)cc(-c3c(Cl)cccc3Cl)c2O1 [I & III, (S)-(8-(2,6-dichlorophenyl)-6-fluoro-2,3-dihydrobenzo[b][1,4]dioxin-2-yl)methanamine hydrochloride]
